# pIC50: −log10 of the molar value.
# What was measured:
# Human PKMYT1 = target: T1, Human PKMYT1 (Homo sapiens, UniProt Q99640); experiment: PKMYT1 biochemical ADP-Glo enzymatic assay; details: PKMYT1 kinase domain 15 nM; ADP-Glo; banded values
# T1 construct: Human PKMYT1 75-362 was cloned as a TEV cleavable 6xHis fusion; 6xHis (TEV cleavable) (cleaved yes); made in house; host or cells: bacterial cells
# T1 sequence (Q99640 75-362): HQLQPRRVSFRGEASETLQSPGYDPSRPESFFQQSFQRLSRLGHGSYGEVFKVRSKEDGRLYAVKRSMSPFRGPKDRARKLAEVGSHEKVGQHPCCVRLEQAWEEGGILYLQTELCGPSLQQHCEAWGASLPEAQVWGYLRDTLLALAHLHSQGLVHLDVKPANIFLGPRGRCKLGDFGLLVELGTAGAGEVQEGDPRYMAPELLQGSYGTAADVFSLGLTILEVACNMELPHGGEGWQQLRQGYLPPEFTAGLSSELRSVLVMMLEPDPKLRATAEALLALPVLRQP
# Summary of the method: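 Intrinsic ATPase activity of E. coli-expressed, tag-cleaved human PKMYT1 kinase domain (75-362), 15 nM, with 500 µM ATP in HEPES pH 7.5/MgCl2/EGTA/Brij-35, 1% DMSO, 60 min at 26 °C. ADP formed was read by ADP-Glo Max luminescence; IC50 from 10-point, 3-fold dilution curves.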
# WEE1 = target: T2, WEE1 (Homo sapiens, UniProt P30291); experiment: Selectivity versus WEE1 assay (ADP-Glo enzymatic assay); assay type: biochemical; details: for pIC50: WEE1 15 nM, ADP-Glo, banded values; for PKMYT1 vs. WEE1 selectivity: fold difference in selectivity for PKMYT1 over WEE1, banded
# T2 construct: purchased Thermo Fisher PR7373A
# T2 sequence (P30291 whole entry): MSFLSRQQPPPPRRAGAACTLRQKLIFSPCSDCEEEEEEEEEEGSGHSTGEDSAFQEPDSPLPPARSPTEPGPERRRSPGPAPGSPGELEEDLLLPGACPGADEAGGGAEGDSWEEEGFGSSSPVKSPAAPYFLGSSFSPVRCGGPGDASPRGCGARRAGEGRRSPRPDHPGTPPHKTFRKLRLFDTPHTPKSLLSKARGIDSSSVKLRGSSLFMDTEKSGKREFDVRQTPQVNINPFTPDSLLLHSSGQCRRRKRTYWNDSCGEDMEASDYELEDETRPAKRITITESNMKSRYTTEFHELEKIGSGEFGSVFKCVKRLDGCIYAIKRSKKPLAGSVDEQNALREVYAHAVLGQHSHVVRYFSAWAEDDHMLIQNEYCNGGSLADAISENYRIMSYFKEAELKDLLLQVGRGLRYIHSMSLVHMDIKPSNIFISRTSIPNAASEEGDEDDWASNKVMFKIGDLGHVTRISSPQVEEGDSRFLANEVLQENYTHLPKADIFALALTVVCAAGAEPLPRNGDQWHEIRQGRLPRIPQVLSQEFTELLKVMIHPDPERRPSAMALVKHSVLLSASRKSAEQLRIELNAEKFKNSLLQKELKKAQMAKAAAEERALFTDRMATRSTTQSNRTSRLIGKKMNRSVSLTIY
# Summary of the method: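 Kinase at 15 nM final in 50 mM HEPES pH 7.5, 10 mM MgCl2, 1 mM EGTA, 0.01% Brij-35, 1% DMSO was started with 30 µM ATP and run 60 min at 26° C. ADP formed was read by ADP-Glo luminescence; IC50 came from dose-response curves.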
Compound,pIC50 (Human PKMYT1),pIC50 (WEE1),PKMYT1 vs. WEE1 selectivity (WEE1)
"Cc1ccc(O)c(C)c1NC(=O)c1cnc(Nc2nc(C(F)(F)F)co2)s1 [BAA-438, N-(3-hydroxy-2,6-dimethylphenyl)-2-((4-(trifluoromethyl)oxazol-2-yl)amino) thiazole-5-carboxamide]",4.96 to 6.00,< 4.96,W (10-<100 fold)
"Cc1conc1Nc1ncc(C(=O)Nc2c(C)ccc(O)c2C)s1 [BAA-440, N-(3-hydroxy-2,6-dimethylphenyl)-2-((4-methylisoxazol-3-yl)amino)thiazole-5-carboxamide]",> 7.30,4.96 to 6.00,X (100-<1000 fold)
"Cc1ccc(O)c(C)c1NC(=O)c1cnc(Nc2cccc3c2CCC3)s1 [BAA-443, 2-((2,3-dihydro-1H-inden-4-yl)amino)-N-(3-hydroxy-2,6-dimethylphenyl)thiazole-5-carboxamide]",6.00 to 7.30,< 4.96,X (100-<1000 fold)
"Cc1ccc(O)c(C)c1NC(=O)c1cnc(Nc2nn(C)c3cccc(F)c23)s1 [BAA-444, 2-((4-fluoro-1-methyl-1H-indazol-3-yl)amino)-N-(3-hydroxy-2,6-dimethylphenyl)thiazole-5-carboxamide]",> 7.30,< 4.96,X (100-<1000 fold)
"Cc1nc2cc(Nc3ncc(C(=O)Nc4c(C)ccc(O)c4C)s3)ccc2o1 [BAA-445, N-(3-hydroxy-2,6-dimethylphenyl)-2-((2-methylbenzo[d]oxazol-5-yl)amino)thiazole-5-carboxamide]",6.00 to 7.30,4.96 to 6.00,X (100-<1000 fold)
"CCOC(=O)c1oc(Nc2ncc(C(=O)Nc3c(C)ccc(O)c3C)s2)nc1C [BAA-446, ethyl 2-((5-((3-hydroxy-2,6-dimethylphenyl)carbamoyl)thiazol-2-yl)amino)-4-methyloxazole-5-carboxylate]",6.00 to 7.30,< 4.96,X (100-<1000 fold)
"Cc1ccc(O)c(C)c1NC(=O)c1cnc(Nc2onc(C)c2C(N)=O)s1 [BAA-448, 5-((5-((3-hydroxy-2,6-dimethylphenyl)carbamoyl)thiazol-2-yl)amino)-3-methylisoxazole-4-carboxamide]",> 7.30,< 4.96,Y (1000-5000 fold)
"Cc1ccc(O)c(C)c1NC(=O)c1cnc(Nc2ncc(C(C)(C)C)o2)s1 [BAA-449, 2-((5-(tert-butyl)oxazol-2-yl)amino)-N-(3-hydroxy-2,6-dimethylphenyl)thiazole-5-carboxamide]",6.00 to 7.30,< 4.96,W (10-<100 fold)

# Second part, the molecule after the results:
pIC50 (Human PKMYT1),pIC50 (WEE1),PKMYT1 vs. WEE1 selectivity (WEE1),Compound
> 7.30,4.96 to 6.00,X (100-<1000 fold),"Cc1ccc(O)c(C)c1NC(=O)c1cnc(Nc2noc(C)c2C)s1 [BAA-439, 2-((4,5-dimethylisoxazol-3-yl)amino)-N-(3-hydroxy-2,6-dimethylphenyl)thiazole-5-carboxamide]"
6.00 to 7.30,< 4.96,X (100-<1000 fold),"Cc1ccc(O)c(C)c1NC(=O)c1cnc(Nc2nc3ccccc3s2)s1 [BAA-442, 2-(benzo[d]thiazol-2-ylamino)-N-(3-hydroxy-2,6-dimethylphenyl)thiazole-5-carboxamide]"
6.00 to 7.30,< 4.96,X (100-<1000 fold),"Cc1ccc(O)c(C)c1NC(=O)c1cnc(Nc2n[nH]c3cc(F)cc(F)c23)s1 [BAA-452, 2-((4,6-difluoro-1H-indazol-3-yl)amino)-N-(3-hydroxy-2,6-dimethylphenyl)thiazole-5-carboxamide]"
6.00 to 7.30,< 4.96,X (100-<1000 fold),"Cc1ccc(O)c(C)c1NC(=O)c1cnc(Nc2n[nH]c3ccccc23)s1 [BAA-455, 2-((1H-indazol-3-yl)amino)-N-(3-hydroxy-2,6-dimethylphenyl)thiazole-5-carboxamide]"

# From patent publication US20260297042A1, “BIARYLAMIDE DERIVATIVES AND THEIR USE AS PKMYT1 INHIBITORS” (CANCER RESEARCH TECHNOLOGY LIMITED, priority 2023, published 2026)
